Laboratory results: patent US6921775B2, “Methods for modulating brain damage” (Children's Medical Center Corporation, priority 2001, dated 2005)

Key:
OL precursor cells = experiment: Kainate-induced excitotoxicity in OL precursor cultures (trypan blue cell viability); assay type: cell-based, rat; conditions: 300 μM kainate; for concentration giving significant reduction of kainate-induced cell death: cell survival assessed 24 hr later
Method: Primary oligodendrocyte precursor cells were isolated from mixed glial cultures of the forebrains of newborn Sprague-Dawley rats using a selective detachment procedure as described in detail elsewhere (McCarthy and de Vellis, 1980; Back et al., 1998), and further purified by differential adhesion (Back et al., 1998). Precursor cells were maintained in a chemically-defined medium (CDM) supplemented with recombinant human platelet derived growth factor-AA (PDGF, 10 ng/ml) and basic fibroblast growth factor (bFGF, 10 ng/ml). The CDM was Dulbecco Modified Eagle's Medium (DMEM) containing D-glucose (25 mM), L-glutamine (4 mM), sodium pyruvate (1 mM), human apo-transferrin (50 μg/ml), bovine pancreatic insulin (5 μg/ml), sodium selenium (30 nM), hydrocortisone (10 nM), D-biotin (10 nM), and bovine serum albumin (BSA, 1 mg/ml). All chemicals were from Sigma. Precursor cells were maintained in the presence of growth factors (PDGF+bFGF) by refeeding with fresh medium every 48 hr for 7 days, to promote cell proliferation and prevent differentiation (Bogler et al., 1990). Experiments were performed with cultures maintained in CDM without the supplemental growth factors. These cultures were routinely characterized by immunochemical detection of cell-specific markers as described before (Back et al., 1998). Cultures at the beginning of experiments usually consisted of approximately 90% A2B5^+ oligodendrocyte precursors and less than 5% glial fibrillary acidic protein (GFAP)-positive astrocytes. Cells were plated on poly-DL-ornithine-coated 24-well plates for cell viability assays and on coated glass coverslips for immunocytochemistry, proliferation studies, and lineage analysis. Kainic acid (Sigma-RBI) were first dissolved in 0.1N HCl, and cyclothiazide (Sigma) in 0.1N NaOH, then added to culture medium to the desired final concentration. The pH of the culture media was maintained at 7.4. Topiramate (RWJ Pharmaceutical Research Institute) and NBQX (Sigma-RBI) were directly dissolved in culture medium and applied 10 min prior to exposure of the cells to kainate or oxygen-glucose deprivation (OGD). Following exposure to kainate or OGD for 24 hr, cell death was quantitatively assessed using the trypan blue exclusion method (Perry et al., 1997). Cells in 5-7 adjacent fields (×200) per well were counted to determine cell survival. At least 1000 cells per condition were counted in control cultures. The mean±SEM values for each experimental group were obtained from at least three separate experiments, and each was performed in triplicate. […] OGD has been previously shown to cause non-NMDA receptor-mediated ischemic cell death in a similar culture model (Fern and Moller, 2000). […] Cell survival was assessed 24 hr later.

[1] = test system: calcium permeable AMPA/kainate receptors; experiment: AMPA induced cobalt uptake in coronal brain slices; assay type: cell-based; conditions: P7 rat slices, 100 μM AMPA, 100 μM MK-801, 20 minute
Description: P6/7 Long Evans rat pups were sacrificed by decapitation and the brains were removed quickly and placed in ice cold rat ACSF. 300 μm coronal slices were cut on a live-slice dedicated vibratome while continually maintained in oxygen bubbled, cold ACSF. Slices were transferred to an oxygen chamber, where they were maintained at room temperature.
300 μm thick vibratome cut coronal slices were collected from the anterior commissure to the anterior aspect of the thalamus and placed in oxygen-rich ice cold rat ACSF. Stabilized slices were transferred to a room temperature oxygen chamber and maintained in ACSF. Stable slices were transferred to modified ACSF containing low calcium and 5 mM CoCL2 and stimulated with 100 μM AMPA in the presence of 100 μM MK-801 and with or without topiramate in varying concentrations. Slices were incubated at room temperature for 20 minutes then rinsed in ACSF, followed by 3 rinses in ASCF containing 2 mM EDTA to chelate and remove any unbound cobalt. Cobalt was then precipitated with ammonium […]. Sections were fixed in 4% paraformaldehyde for 10 minutes, rinsed and stored in PBS. Silver enhancement of precipitate was carried out for improved visualization. Slices were transferred to enhancement solution (10% sucrose, 15.5 mM hydroquinone, 42 mM citric acid) and warmed to 50° C. Slices were moved to similar solution containing 0.1% silver nitrate, then incubated at 50° C. for 45 minutes, with solution changes every 15 minutes. Sections were rinsed in PBS then cryoprotected in 30% sucrose solution and 40 μm sections, cut using a freezing microtome, were mounted on slides and analyzed.
Cortical slices were assessed for the presence of AMPA induced cobalt uptake in coronal slices from P7 rats. […] Immature OLs in pericallosal white matter at P7 show consistent cobalt uptake following 20 minute incubation with 100 μM AMPA, 100 μM MK-801 in low Ca^2+, cobalt containing rat ACSF (FIG. 6B). Cobalt-containing white matter cells were identified as OL precursors by immunolabeling with O4 surface antigen (FIG. 6C and FIG. 6D). […]

[2] = 100 μM NBQX or 50 μM topiramate

Compound | concentration giving significant reduction of kainate-induced cell death (OL precursor cells) | cell survival (OL precursor cells; topiramate 50-100 μM, 24 hr) | cobalt uptake in immature OLs of pericallosal white matter ([1]; 10 μM topiramate) | cobalt uptake in immature OLs of pericallosal white matter [1, 2] | protection against kainate-induced cell death at 50 μM (OL precursor cells; 50 μM NBQX, 24 hr)
CC1(C)O[C@@H]2[C@@H](CO[C@@]3(COS(N)(=O)=O)OC(C)(C)O[C@@H]23)O1 [topiramate] | ≥ 30 µM | approximately 70% | partial effect | effectively blocked | 
NS(=O)(=O)c1cccc2c1c([N+](=O)[O-])cc1nc(O)c(O)nc12 [NBQX, 2,3-Dioxo-6-nitro-1,2,3,4-tetrahydrobenzo[f]quinoxaline-7-sulphonamide] | ≥ 10 µM |  |  | effectively blocked | fully protective
